What was measured:
hepatic OCT1 = biological target: T1, hepatic OCT1 (Mus musculus, UniProt O08966); experiment: Plasma isobutyryl L-carnitine (IBC) after a single oral dose of dasatinib in mice; format: in vivo; parameters: from tissue; host or cells: liver of wild-type mice, in vivo; details: single oral dose 15 mg/kg
T1 sequence (O08966 1-556): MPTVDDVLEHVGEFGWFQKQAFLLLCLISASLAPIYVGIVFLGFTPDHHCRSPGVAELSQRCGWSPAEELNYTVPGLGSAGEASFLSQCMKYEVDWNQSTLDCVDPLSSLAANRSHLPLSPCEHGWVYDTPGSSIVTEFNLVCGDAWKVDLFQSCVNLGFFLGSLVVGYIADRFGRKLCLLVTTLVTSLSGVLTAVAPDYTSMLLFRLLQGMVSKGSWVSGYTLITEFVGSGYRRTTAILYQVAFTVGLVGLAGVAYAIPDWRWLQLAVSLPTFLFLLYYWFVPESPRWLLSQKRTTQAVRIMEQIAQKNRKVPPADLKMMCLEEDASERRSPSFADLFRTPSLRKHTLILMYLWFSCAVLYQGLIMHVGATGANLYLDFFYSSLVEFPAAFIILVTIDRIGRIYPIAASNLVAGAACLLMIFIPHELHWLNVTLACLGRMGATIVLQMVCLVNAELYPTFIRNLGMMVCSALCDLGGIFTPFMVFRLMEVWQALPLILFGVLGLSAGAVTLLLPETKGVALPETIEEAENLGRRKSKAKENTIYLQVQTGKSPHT
Excerpt: Mice were accommodated in a temperature-, and light-controlled environment with access to water and food. OCT1/2/MATE1-deficient mice was obtained by crossing male OCT1/2-knockout mice with female MATE1-knockout mice to generate heterozygous breeders. The MATE1-deficient mice used to generate this model were kindly provided by Dr. Yan Shu (University of Maryland, Baltimore, MD), and backcrossed onto an FVB background. Next, heterozygous males and females were used to obtain OCT1/2/MATE1-knockout mice. Genetic deletion of OCT1/2 and MATE1 was confirmed by performing RT-PCR analysis.
TEA (0.2 mg/kg) via the caudal vein. Concentrations of total TEA-derived radioactivity in plasma and homogenized liver samples were measured by liquid scintillation counting.
A Vanquish UHPLC paired with a Quantiva triple quadrupole mass spectrometer (Thermo Fisher Scientific) was used to perform LC-MS/MS analysis of IBC and the internal standard, isobutyryl L-carnitine-d3 (Cayman Chemical, Ann Arbor, MI). Chromatographic separation of analytes was achieved on an Accucore aQ column (150 mm × 2.1 mm, dp = 2.6 μm) with a C18 AQUASIL guard cartridge (2.1 mm × 10 mm, dp = 3 μm). The temperature of the column and autosampler was retained at 40 and 4°C, respectively. […] The lower limit of quantification for IBC was 0.1 ng/ml.

mouse OCT1 (mOCT1) = biological target: T2, mouse OCT1 (mOCT1) (Mus musculus, UniProt O08966); experiment: Cellular uptake of [14C] TEA in HEK293 cells overexpressing mOCT1, with or without inhibitor; format: cell-based
T2 construct: expressed in transfected cells
T2 sequence (O08966 1-556): T1 sequence (O08966 1-556)
Procedure: Human embryonic kidney (HEK293) cells were obtained from the American Type Culture Collection (ATCC, Manassas, VA). HEK293 cells stably transfected with mouse OCT1 (mOCT1) or human OCT1 (hOCT1) were cultured in Dulbecco’s Modified Eagle Media (DMEM) media supplemented with 10% fetal bovine serum (FBS) and grown at 37°C in a humidified incubator containing 5% CO2. Radiolabeled [^14C] TEA and [^14C] metformin were obtained from American Radiochemicals (St. Louis, MO). Cellular uptake assays were performed 48 h following transient transfection by Lipofectamine 3000 Transfection Reagent (Thermo Fisher Scientific, Waltham, MA). ON-TARGETplus Human YES1 siRNA was obtained from Dharmacon (Lafayette, CO). RNA extraction kits were obtained from Omega Bio-tek (Norcross, GA).
(§1) Uptake assays were performed with radiolabeled TEA (2 µM) or metformin (5 µM) as described previously ([Sprowl et al., 2013]; [Pabla et al., 2015]) in the presence or absence of TKIs. The results were normalized to uptake values in cells stably transfected with an empty vector treated with vehicle alone (Supplementary Figure S1). Prior to cellular accumulation experiments, cells were grown to 90% confluence on poly-lysine coated multi-well plates. For uptake studies, cells were rinsed with warm PBS and incubated in the presence of a vehicle or inhibitor, prepared in serum and phenol red-free DMEM media for 15 min. Subsequently, media was removed followed by the addition of radiolabeled TEA and metformin along with inhibitor, and cellular uptake was measured after a 15-min co-incubation period. Total radioactivity originating from TEA and metformin was determined using liquid scintillation counting after lysing the cells with 1 N NaOH, a neutralizing step with 2 M HCl. A Pierce protein assay (Thermo Fisher Scientific, Waltham, MA) was used to normalize radioactivity readings to account for variation in cell number between samples.

YES1 / hOCT1 = experiment: Chemical genetics: hOCT1 uptake assay in HEK293 cells transfected with wild-type YES1 or T348I gatekeeper mutant, then dasatinib; format: cell-based, human; details: HEK293-hOCT1, dasatinib 1 µM 15 min, [14C] TEA uptake
Procedure: as §1, with “The” for “Uptake assays were performed with radiolabeled TEA (2 µM) or metformin (5 µM) as described previously ([Sprowl et al., 2013]; [Pabla et al., 2015]) in the presence or absence of TKIs. The”

OCT1 = system: OCT1; parameters: method as in Furmanski et al., 2013; details: ref Furmanski et al., 2013; cited from earlier work
OCT3 = biological target: T3, OCT3 (Homo sapiens, UniProt O75751); experiment: OCT3 transport inhibition by TKIs (Supplementary Figure S2); format: cell-based
T3 sequence (O75751 1-556): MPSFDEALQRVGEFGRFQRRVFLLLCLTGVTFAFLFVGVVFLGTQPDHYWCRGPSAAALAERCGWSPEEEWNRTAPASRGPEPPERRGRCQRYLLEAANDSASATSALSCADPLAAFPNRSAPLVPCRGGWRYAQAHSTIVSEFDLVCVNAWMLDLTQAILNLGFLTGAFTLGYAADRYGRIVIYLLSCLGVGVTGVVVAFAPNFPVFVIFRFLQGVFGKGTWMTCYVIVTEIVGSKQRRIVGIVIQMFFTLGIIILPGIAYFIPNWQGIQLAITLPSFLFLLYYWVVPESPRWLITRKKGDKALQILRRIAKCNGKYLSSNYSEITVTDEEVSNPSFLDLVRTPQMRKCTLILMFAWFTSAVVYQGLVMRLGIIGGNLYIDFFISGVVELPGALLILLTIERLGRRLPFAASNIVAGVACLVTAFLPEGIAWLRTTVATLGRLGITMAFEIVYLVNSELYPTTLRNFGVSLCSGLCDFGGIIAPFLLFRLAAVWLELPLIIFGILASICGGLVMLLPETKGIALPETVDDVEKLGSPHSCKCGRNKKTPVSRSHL
Procedure: as §1

Compound: Cc1nc(Nc2ncc(C(=O)Nc3c(C)cccc3Cl)s2)cc(N2CCN(CCO)CC2)n1 [Dasatinib, dasatinib]
- plasma levels of IBC after dasatinib, OCT1/2-deficient or OCT1/2/MATE1-deficient mice (hepatic OCT1): not
- plasma levels of IBC after dasatinib, wild-type mice (hepatic OCT1; wild-type mice): transient, statistically significant increase
- IC50 (mouse OCT1 (mOCT1); HEK293-mOCT1, [14C] TEA 2 µM, 15 min pre-incubation + 15 min co-incubation, read-out: IC50, mOCT1-mediated transport of TEA): 1090 nM
- Ki (mouse OCT1 (mOCT1); read-out: inhibition constant (Ki), Dixon plot, mOCT1): 870 nM
- dasatinib-mediated OCT1 inhibition in cells with TKI-resistant YES1 (T348I gatekeeper) mutant (YES1 / hOCT1): rescue
- dasatinib-mediated OCT1 inhibition in cells with YES1 wild-type construct (YES1 / hOCT1): retained sensitivity
- transported substrate of OCT1 (OCT1): not themselves transported substrate
- OCT3 function in presence of TKI (OCT3): potently inhibiting

Source: publication PMC8006202, “Influence of YES1 Kinase and Tyrosine Phosphorylation on the Activity of OCT1” (Frontiers in Pharmacology, 2021)
